From US11033518B2, “Pharmaceutical composition containing niclosamide for treating axin-GSK3 interaction-related diseases” (BAOBAB PHARM CO., LTD., priority 2017, dated 2021)
Like-named read-outs stand apart in the source and are kept apart here. Blank lines part the entries; values can stand above or below the compound they belong to. Ends that are not written are not given here.

Legend:
recombinant GSK3 beta = target: T1, recombinant GSK3 beta (Homo sapiens, UniProt P49841); experiment: Surface plasma resonance (SPR) analysis; assay type: binding
T1 construct: His; made in house; host or cells: Sf9 insect cells; This is inferred: 'the purified recombinant GSK3 beta' points back to the protein of b91
T1 sequence (P49841 whole entry): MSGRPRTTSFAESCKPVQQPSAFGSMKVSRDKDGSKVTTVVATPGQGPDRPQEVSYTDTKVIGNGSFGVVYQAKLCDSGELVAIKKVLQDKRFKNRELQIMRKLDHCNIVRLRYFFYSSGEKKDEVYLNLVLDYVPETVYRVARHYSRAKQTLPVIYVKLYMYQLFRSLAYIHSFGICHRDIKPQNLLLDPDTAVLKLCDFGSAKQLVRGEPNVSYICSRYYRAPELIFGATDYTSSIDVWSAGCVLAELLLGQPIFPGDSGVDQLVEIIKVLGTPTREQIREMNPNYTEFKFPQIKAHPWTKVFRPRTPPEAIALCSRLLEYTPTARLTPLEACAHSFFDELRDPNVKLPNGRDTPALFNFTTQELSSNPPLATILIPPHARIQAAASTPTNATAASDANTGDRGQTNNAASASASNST
Experimental: In order to confirm whether niclosamide directly binds to GSK3, surface plasma resonance (SPR) analysis was conducted.
SPR was carried out using ProteOn™ XPR36 Protein Interaction Array system (Bio-Rad Laboratories, Inc., CA, USA), and the purified recombinant GSK3 beta was immobilized on ProteOn GLH sensor chip. The niclosamide or 19-mer wild-type Axin peptide or mutant peptide (VEPQKAAEEAIHRAEAVQR, mutation underlined) was diluted with phosphate-buffered saline+Tween 20+1% DMSO at different concentrations respectively, and then was flowed into the chip at a rate of 100 μl/min, and the result was analyzed by ProteOn Manager Software 2.0 using the standard Langmuir models for fitting kinetic data. The complex formation ratio was represented by an association constant (ka, in the unit of M−1s−1), and the complex decrement ratio was represented by a dissociation constant (kd, in the unit of s−1) as the following equilibrium equation 1.
The high-affinity interaction is represented by the low dissociation constant, and gradual cognition and binding with interactant (rapid “on rate,” or high ka), and stability of complex formation (slow “off rate,” or low kd) are equal to the equation KD=kd/ka.

[1] = relative to paclitaxel; cited from earlier work

- Kd (recombinant GSK3 beta; immobilized GSK3 protein, read-out: binding to GSK3 (could not bind up to)): > 100 µM
Compound: VEPQKAAEEAIHRAEAVQR [mutant Axin peptide, VEPQKAAEEAIHRAEAVQR]

Compound: CC[C@@H](C(=O)[C@@H](C)[C@@H](O)[C@H](C)[C@@H]1O[C@@H]([C@@H](CC)C(=O)O)CC[C@@H]1C)[C@H]1O[C@]2(C=C[C@@H](O)[C@]3(CC[C@@](C)([C@H]4CC[C@](O)(CC)[C@H](C)O4)O3)O2)[C@H](C)C[C@@H]1C [Salinomycin]
- potency in inhibiting cancer differentiation in proportion to paclitaxel [1]: up to 100 times

- Kd (recombinant GSK3 beta; immobilized GSK3 beta, read-out: Equilibrium dissociation constant, KD): 35 µM
Compound: CC[C@H](C)[C@H](NC(=O)[C@H](CC(C)C)NC(=O)[C@H](CCC(=O)O)NC(=O)[C@H](CCC(=O)O)NC(=O)[C@H](C)NC(=O)[C@H](Cc1ccccc1)NC(=O)[C@H](CCCCN)NC(=O)[C@H](CCC(N)=O)NC(=O)[C@@H]1CCCN1C(=O)[C@H](CCC(=O)O)NC(=O)[C@@H](N)C(C)C)C(=O)N[C@@H](Cc1c[nH]cn1)C(=O)N[C@@H](CCCNC(=N)N)C(=O)N[C@@H](CC(C)C)C(=O)N[C@@H](CCC(=O)O)C(=O)N[C@@H](C)C(=O)N[C@H](C(=O)N[C@@H](CCC(N)=O)C(=O)N[C@@H](CCCNC(=N)N)C(=O)O)C(C)C [wild-type Axin peptide, VEPQKFAEELIHRLEAVQR]
